System: HIV-13B in MT4 cells
Assay: Antiviral activity: inhibition of the cytopathic effect of HIV in MT4 cells
Format: cell-based, HIV-1
Conditions: Human immunodeficiency virus 1, MT4
In the case of CCCN(Cc1csc(C(C)C)n1)C(=O)N[C@@H](C)C(=O)N[C@@H](Cc1ccccc1)C[C@H](O)[C@H](Cc1ccccc1)NC(=O)OCc1cncs1 [Example 54], the IC50 is reported as 110 to 170 nM.

Same assay, conditions: Human immunodeficiency virus 1, MT4; read-out: IC50
CC(C)[C@H](NC(=O)OCc1csc(N2CCOCC2)n1)C(=O)N[C@@H](Cc1ccccc1)[C@@H](O)C[C@H](Cc1ccccc1)NC(=O)OCc1cncs1 [Example 12, (2S,3S,5S)-2-(N-(N-((2-(4-Morpholinyl)-4-thiazolyl)-methoxycarbonyl)valinyl)amino)-5-(N-((5-thiazolyl)-methoxycarbonyl)amino)-1,6-diphenyl-3-hydroxyhexane] gave an IC50 of 53 to 106 nM. Work on CC(C)c1nc(CN(C)C(=O)N[C@H](C(=O)N[C@@H](Cc2ccccc2)C[C@H](O)[C@H](Cc2ccccc2)NC(=O)OCc2cncs2)C(C)C)cs1 [Example 1, (2S,3S,5S)-5-(N-(N-((N-Methyl-N-((2-isopropyl-4-thiazolyl)methyl)amino)carbonyl)valinyl)amino)-2-(N-((5-thiazolyl)methoxycarbonyl)amino)-1,6-diphenyl-3-hydroxyhexane] yielded an IC50 of 25 to 40 nM. Compound CCC(CC)c1nc(CN(C)C(=O)N[C@H](C(=O)N[C@@H](Cc2ccccc2)C[C@H](O)[C@H](Cc2ccccc2)NC(=O)OCc2cncs2)C(C)C)cs1 [Example 44, (2S,3S,5S)-5-(N-(N-((N-Methyl-N-((2-(3-pentyl)-4-thiazolyl)methyl)amino)carbonyl)valinyl)amino)-2-(N-((5-thiazolyl)methoxycarbonyl)amino)-1,6-diphenyl-3-hydroxyhexane] has an IC50 of 120 to 160 nM. In the case of CC(C)c1nc(COC(=O)N[C@H](C(=O)N[C@H](Cc2cncs2)C[C@H](O)[C@H](Cc2ccccc2)NC(=O)OCc2cncs2)C(C)C)cs1 [Example 64, (2S,3S,5S)-5-(N-(N-((2-Isopropyl-4-thiazolyl)methoxycarbonyl)valinyl)amino)-1-phenyl-2-(N-((5-thiazolyl)methoxycarbonyl)amino)-6-(5-thiazolyl)-3-hydroxyhexane], the IC50 is reported as 100 to 130 nM. Work on CC(C)[C@H](NC(=O)OCc1csc(N2CCOCC2)n1)C(=O)N[C@@H](Cc1ccccc1)C[C@H](O)[C@H](Cc1ccccc1)NC(=O)OCc1cncs1 [Example 11, (2S,3S,5S)-5-(N-(N-((2-(4-Morpholinyl)-4-thiazolyl)methoxycarbonyl)valinyl)amino)-2-(N-((5-thiazolyl)methoxycarbonyl)amino)-1,6-diphenyl-3-hydroxyhexane] yielded an IC50 of 17 to 132 nM. In the case of CC(C)[C@H](NC(=O)OCc1csc(N(C)C)n1)C(=O)N[C@@H](Cc1ccccc1)C[C@H](O)[C@H](Cc1ccccc1)NC(=O)OCc1cncs1 [Example 9, (2S,3S,5S)-5-(N-(N-((2-(N,N-Dimethylamino)-4-thiazolyl)methoxycarbonyl)valinyl)amino)-2-(N-((5-thiazolyl)methoxycarbonyl)amino)-1,6-diphenyl-3-hydroxyhexane], the IC50 is reported as 80 to 100 nM. With CC(C)c1nc(CN(C)C(=O)N[C@H](C(=O)N[C@H](Cc2cncs2)C[C@H](O)[C@H](Cc2ccccc2)NC(=O)OCc2cncs2)C(C)C)cs1 [Example 8, (2S,3S,5S)-5-(N-(N-((N-Methyl-N-((2-isopropyl-4-thiazolyl)methyl)amino)carbonyl)valinyl)amino)-1-phenyl-2-(N-((5-thiazolyl)methoxycarbonyl)amino)-6-(5-thiazolyl)-3-hydroxyhexane] the IC50 was 57 to 95 nM. In the case of CC(C)c1nc(CN(C(=O)N[C@H](C(=O)N[C@@H](Cc2ccccc2)C[C@H](O)[C@H](Cc2ccccc2)NC(=O)OCc2cncs2)C(C)C)C2CC2)cs1 [Example 17, (2S,3S,5S)-5-(N-(N-((N-Cyclopropyl-N-((2-isopropyl-4-thiazolyl)methyl)amino)carbonyl)valinyl)amino)-2-(N-((5-thiazolyl)methoxycarbonyl)amino)-1,6-diphenyl-3-hydroxyhexane], the IC50 is reported as 230 to 310 nM. Work on CC(C)c1nc(COC(=O)N[C@@H](C)C(=O)N[C@@H](Cc2ccccc2)C[C@H](O)[C@H](Cc2ccccc2)NC(=O)OCc2cncs2)cs1 [Example 7, (2S,3S,5S)-5-(N-(N-((2-Isopropyl-4-thiazolyl)methoxycarbonyl)alaninyl)amino)-2-(N-((5-thiazolyl)methoxycarbonyl)amino)-1,6-diphenyl-3-hydroxyhexane] yielded an IC50 of 76 to 131 nM. CC(C)c1nc(CCN(C)C(=O)N[C@H](C(=O)N[C@@H](Cc2ccccc2)C[C@H](O)[C@H](Cc2ccccc2)NC(=O)OCc2cncs2)C(C)C)cs1 [Example 61, (2S,3S,5S)-5-(N-(N-((N-Methyl-N-(2-(2-isopropyl-4-thiazolyl)ethyl)amino)carbonyl)valinyl)amino)-2-(N-((5-thiazolyl)methoxycarbonyl)amino)-1,6-diphenyl-3-hydroxyhexane] gave an IC50 of 150 to 220 nM. For CC(C)c1nc(COC(=O)N[C@H](C(=O)N[C@@H](Cc2ccccc2)[C@@H](O)C[C@H](Cc2ccccc2)NC(=O)OCc2cncs2)C(C)C)cs1 [Example 6, (2S,3S,5S)-2-(N-(N-((2-Isopropyl-4-thiazolyl)methoxycarbonyl)valinyl)amino)-5-(N-((5-thiazolyl)methoxycarbonyl)amino)-1,6-diphenyl-3-hydroxyhexane], the IC50 was 6 to 14 nM. For CC(C)[C@H](NC(=O)OCc1csc(N2CCCC2)n1)C(=O)N[C@@H](Cc1ccccc1)[C@@H](O)C[C@H](Cc1ccccc1)NC(=O)OCc1cncs1 [Example 14, (2S,3S,5S)-2-(N-(N-((2-(1-Pyrrolidinyl)-4-thiazolyl)-methoxycarbonyl)valinyl)amino)-5-(N-((5-thiazolyl)-methoxycarbonyl)amino)-1,6-diphenyl-3-hydroxyhexane], the IC50 was 140 to 220 nM. Compound CC(C)[C@H](NC(=O)OCc1csc(N(C)C)n1)C(=O)N[C@@H](Cc1ccccc1)[C@@H](O)C[C@H](Cc1ccccc1)NC(=O)OCc1cncs1 [Example 10, (2S,3S,5S)-2-(N-(N-((2-(N,N-Dimethylamino)-4-thiazolyl)methoxycarbonyl)valinyl)amino)-5-(N-((5-thiazolyl)methoxycarbonyl)amino)-1,6-diphenyl-3-hydroxyhexane] has an IC50 of 54 to 71 nM. CC(C)c1nc(CN(C)C(=O)N[C@H](C(=O)N[C@@H](Cc2ccccc2)C[C@H](O)[C@H](Cc2ccccc2)NC(=O)OCc2ccno2)C(C)C)co1 [Example 27, (2S,3S,5S)-5-(N-(N-((N-Methyl-N-((2-isopropyl-4-oxazolyl)methyl)amino)carbonyl)valinyl)amino)-2-(N-((5-isoxazolyl)methoxycarbonyl)amino)-1,6-diphenyl-3-hydroxyhexane] showed an IC50 of 11 to 12 nM. In the case of CC(C)[C@H](NC(=O)N(C)Cc1csc(C2CCC2)n1)C(=O)N[C@@H](Cc1ccccc1)C[C@H](O)[C@H](Cc1ccccc1)NC(=O)OCc1cncs1 [Example 52, (2S,3S,5S)-5-(N-(N-((N-Methyl-N-((2-cyclobutyl-4-thiazolyl)methyl)amino)carbonyl)valinyl)amino)-2-(N-((5-thiazolyl)methoxycarbonyl)amino)-1,6-diphenyl-3-hydroxyhexane], the IC50 is reported as 35 to 42 nM. Cc1nc(CN(C)C(=O)N[C@H](C(=O)N[C@@H](Cc2ccccc2)C[C@H](O)[C@H](Cc2ccccc2)NC(=O)OCc2cncs2)C(C)C)co1 [Example 42, (2S,3S,5S)-5-(N-(N-((N-Methyl-N-((2-methyl-4-oxazolyl)methyl)amino)carbonyl)valinyl)amino)-2-(N-((5-thiazolyl)methoxycarbonyl)amino)-1,6-diphenyl-3-hydroxyhexane] showed an IC50 of 73 to 80 nM. In the case of CC(C)c1nc(CN(C)C(=O)N[C@@H](C)C(=O)N[C@@H](Cc2ccccc2)C[C@H](O)[C@H](Cc2ccccc2)NC(=O)OCc2cncs2)co1 [Example 56, (2S,3S,5S)-5-(N-(N-((N-Methyl-N-((2-isopropyl-4-oxazolyl)methyl)amino)carbonyl)-L-alaninyl)amino)-2-(N-((5-thiazolyl)methoxycarbonyl)amino)-1,6-diphenyl-3-hydroxyhexane], the IC50 is reported as 50 to 67 nM. Compound CC(C)c1nc(CN(C)C(=O)N[C@H](C(=O)N[C@@H](Cc2ccccc2)C[C@H](O)[C@H](Cc2ccccc2)NC(=O)OCc2cncs2)C(C)C)co1 [Example 18, (2S,3S,5S)-5-(N-(N-((N-Methyl-N-((2-isopropyl-4-oxazolyl)methyl)amino)carbonyl)valinyl)amino)-2-(N-((5-thiazolyl)methoxycarbonyl)amino)-1,6-diphenyl-3-hydroxyhexane] has an IC50 of 39 to 46 nM. With Cc1ncc(COC(=O)N[C@@H](Cc2ccccc2)C[C@H](O)[C@H](Cc2ccccc2)NC(=O)[C@@H](NC(=O)N(C)Cc2csc(C(C)C)n2)C(C)C)s1 [Example 39, (2S,3S,5S)-2-(N-(N-((N-Methyl-N-((2-isopropyl-4-thiazolyl)methyl)amino)carbonyl)valinyl)amino)-5-(N-((2-methyl-5-thiazolyl)methoxycarbonyl)amino)-1,6-diphenyl-3-hydroxyhexane] the IC50 was 73 to 77 nM. CC(C)c1nc(CN(C)C(=O)N[C@H](C(=O)N[C@@H](Cc2ccccc2)C[C@H](O)[C@H](Cc2ccccc2)NC(=O)OCc2ccno2)C(C)C)cs1 [Example 26, (2S,3S,5S)-5-(N-(N-((N-Methyl-N-((2-isopropyl-4-thiazolyl)methyl)amino)carbonyl)valinyl)amino)-2-(N-((5-isoxazolyl)methoxycarbonyl)amino)-1,6-diphenyl-3-hydroxyhexane] gave an IC50 of 7 to 11 nM.

Same assay, conditions: concentration giving 50% inhibition of the cytopathic effect of HIV; HIV-13B in MT4 cells; read-out: IC50
Compound CC(C)c1nc(CN(C)C(=O)N[C@H](C(=O)N[C@@H](Cc2ccccc2)C[C@H](O)[C@H](Cc2ccccc2)NC(=O)OCc2cnco2)C(C)C)cs1 [Example 20] has an IC50 of 11 to 14 nM. With CC(C)[C@H](NC(=O)N(C)Cc1csc(C2CC2)n1)C(=O)N[C@@H](Cc1ccccc1)C[C@H](O)[C@H](Cc1ccccc1)NC(=O)OCc1cncs1 [Example 51] the IC50 was 45 to 49 nM. For CC(C)c1nc(CN(C)C(=O)N[C@@H](C)C(=O)N[C@@H](Cc2ccccc2)C[C@H](O)[C@H](Cc2ccccc2)NC(=O)OCc2cncs2)cs1 [Example 3, (2S.3S.5S)-5-(N-(N-((N-Methyl-N-((2-isopropyl-4-thiazolyl)methyl)amino)carbonyl)alaninyl)amino)-2-(N-((5-thiazolyl)methoxycarbonyl)amino)-1,6-diphenyl-3-hydroxyhexane], the IC50 was 41 to 75 nM.

System: not listed separately
Assay: in vitro
Format: cell-based
Conditions: human
Text: The anti-HIV activity of the compounds of the invention can be determined in MT4 cells according to the procedure of Kempf, et. al. (Antimicrob. Agents Chemother. 1991, 35, 2209).
In the case of CC(C)c1nc(COC(=O)N[C@H](C(=O)N[C@H](Cc2cncs2)C[C@H](O)[C@H](Cc2ccccc2)NC(=O)OCc2cncs2)C(C)C)cs1 [Example 64, (2S,3S,5S)-5-(N-(N-((2-Isopropyl-4-thiazolyl)methoxycarbonyl)valinyl)amino)-1-phenyl-2-(N-((5-thiazolyl)methoxycarbonyl)amino)-6-(5-thiazolyl)-3-hydroxyhexane], the CC50 is reported as > 100000 nM. Compound CC(C)[C@H](NC(=O)OCc1csc(N(C)C)n1)C(=O)N[C@@H](Cc1ccccc1)C[C@H](O)[C@H](Cc1ccccc1)NC(=O)OCc1cncs1 [Example 9, (2S,3S,5S)-5-(N-(N-((2-(N,N-Dimethylamino)-4-thiazolyl)methoxycarbonyl)valinyl)amino)-2-(N-((5-thiazolyl)methoxycarbonyl)amino)-1,6-diphenyl-3-hydroxyhexane] has a CC50 of 62000 nM. CC(C)c1nc(CN(C)C(=O)N[C@H](C(=O)N[C@H](Cc2cncs2)C[C@H](O)[C@H](Cc2ccccc2)NC(=O)OCc2cncs2)C(C)C)cs1 [Example 8, (2S,3S,5S)-5-(N-(N-((N-Methyl-N-((2-isopropyl-4-thiazolyl)methyl)amino)carbonyl)valinyl)amino)-1-phenyl-2-(N-((5-thiazolyl)methoxycarbonyl)amino)-6-(5-thiazolyl)-3-hydroxyhexane] gave a CC50 of 97000 nM. In the case of CC(C)[C@H](NC(=O)OCc1csc(N2CCCC2)n1)C(=O)N[C@@H](Cc1ccccc1)[C@@H](O)C[C@H](Cc1ccccc1)NC(=O)OCc1cncs1 [Example 14, (2S,3S,5S)-2-(N-(N-((2-(1-Pyrrolidinyl)-4-thiazolyl)-methoxycarbonyl)valinyl)amino)-5-(N-((5-thiazolyl)-methoxycarbonyl)amino)-1,6-diphenyl-3-hydroxyhexane], the CC50 is reported as > 100000 nM.

Reference: patent US6531610B1 (Abbott Laboratories, priority 1989, dated 2003)
